The values below come from the NIST ThermoML archive (doi:10.1021/acs.jced.6b00043).

For this series the following is noted: 1008.1 K; Crystal; Closed cell (Static) method.

With `O=C([O-])[O-].[Li+].[Li+]` [lithium carbonate], the vapor or sublimation pressure – broadly, the equilibrium pressure above the liquid or solid – came out at 1.552 kPa.
